pIC50, pKi: −log10 of the molar value. Values after ≈ are worked out from the molar mass of the structure shown.
Experiments:
[1] = system: SiHa; test: Cytotoxicity against human SiHa cells by MTT assay; format: functional, cell-based
[2] = system: MCF7; test: Cytotoxicity against human MCF7 cells by MTT assay; format: functional, cell-based
[3] = system: A549; test: Cytotoxicity against human A549 cells by MTT assay; format: functional, cell-based
[4] = system: COLO 205; test: Cytotoxicity against human COLO 205 cells by MTT assay; format: functional, cell-based
[5] = system: Mus musculus; test: Anxiolytic activity in mouse assessed as time spent in light at 100 mg/kg, po; format: functional
[6] = system: Mus musculus; test: Anxiolytic activity in mouse assessed as transfer number at 100 mg/kg, po; format: functional
[7] = system: Escherichia coli; test: Antibacterial activity against Escherichia coli assessed as zone of inhibition; format: functional
[8] = system: Bacillus subtilis; test: Antibacterial activity against Bacillus subtilis assessed as zone of inhibition; format: functional
[9] = system: Aspergillus clavatus; test: Antifungal activity against Aspergillus clavatus assessed as zone of inhibition; format: functional
[10] = system: Staphylococcus aureus; test: Antibacterial activity against Staphylococcus aureus assessed as zone of inhibition; format: functional
[11] = system: Pseudomonas aeruginosa; test: Antibacterial activity against Pseudomonas aeruginosa assessed as zone of inhibition; format: functional
[12] = system: Bacillus subtilis; test: Antibacterial activity against Bacillus subtilis; format: functional
[13] = system: Staphylococcus aureus; test: Antibacterial activity against Staphylococcus aureus; format: functional
[14] = system: Escherichia coli; test: Antibacterial activity against Escherichia coli; format: functional
[15] = system: Pseudomonas aeruginosa; test: Antibacterial activity against Pseudomonas aeruginosa; format: functional
[16] = system: Penicillium chrysogenum; test: Antifungal activity against Penicillium chrysogenum; format: functional
[17] = system: Fusarium oxysporum; test: Antifungal activity against Fusarium oxysporum; format: functional
[18] = system: Fusarium graminearum; test: Antifungal activity against Gibberrella-zeave assessed as inhibition of fungal growth at 50 ug/ml; format: functional; parameters: scale not given: the % may be the effect or the level left; details: dose 50 µg/ml
[19] = system: Alternaria solani; test: Antifungal activity against Alternaria solani assessed as inhibition of fungal growth at 50 ug/ml; format: functional; parameters: scale not given: the % may be the effect or the level left; details: dose 50 µg/ml
[20] = system: Phomopsis asparagi; test: Antifungal activity against Phoma asparagi assessed as inhibition of fungal growth at 50 ug/ml; format: functional; parameters: scale not given: the % may be the effect or the level left; details: dose 50 µg/ml
[21] = system: Mycosphaerella arachidis; test: Antifungal activity against Cercospora arachidicola assessed as inhibition of fungal growth at 50 ug/ml; format: functional; parameters: scale not given: the % may be the effect or the level left; details: dose 50 µg/ml
[22] = system: Brassica rapa subsp. oleifera; test: Antifungal activity against Brassica campestris assessed as inhibition of fungal growth at 100 ug/ml by cup plate diffusion method; format: functional; parameters: scale not given: the % may be the effect or the level left; details: dose 100 µg/ml
[23] = system: Brassica rapa subsp. oleifera; test: Antifungal activity against Brassica campestris assessed as inhibition of fungal growth at 10 ug/ml by cup plate diffusion method; format: functional; parameters: scale not given: the % may be the effect or the level left; details: dose 10 µg/ml
[24] = system: Klebsiella pneumoniae; test: Antibacterial activity against Klebsiella pneumoniae strain 13 assessed as bacterial inhibition at 0.5 mg/ml after 3 hrs; format: functional; parameters: scale not given: the % may be the effect or the level left
[25] = system: HCT-116; test: Cytotoxicity against human HCT-116 cells by MTT assay; format: functional, cell-based
[26] = system: Panel NCI-60 (60 carcinoma cell lines); test: Cytotoxicity against human Panel NCI-60 (60 carcinoma cell lines); format: functional; parameters: concentration or dose not given beside the values
[27] = Cytotoxicity against human WI-38 cells by MTT assay; format: toxicity, cell-based
[28] = target: Cyclin-dependent kinase 1 (Homo sapiens, UniProt P06493); test: Inhibition of CDK1 (unknown origin)
[29] = target: T1, Prostaglandin G/H synthase 1 (Ovis aries, UniProt P05979); test: Inhibition of ovine COX-1
T1 sequence (P05979 whole entry): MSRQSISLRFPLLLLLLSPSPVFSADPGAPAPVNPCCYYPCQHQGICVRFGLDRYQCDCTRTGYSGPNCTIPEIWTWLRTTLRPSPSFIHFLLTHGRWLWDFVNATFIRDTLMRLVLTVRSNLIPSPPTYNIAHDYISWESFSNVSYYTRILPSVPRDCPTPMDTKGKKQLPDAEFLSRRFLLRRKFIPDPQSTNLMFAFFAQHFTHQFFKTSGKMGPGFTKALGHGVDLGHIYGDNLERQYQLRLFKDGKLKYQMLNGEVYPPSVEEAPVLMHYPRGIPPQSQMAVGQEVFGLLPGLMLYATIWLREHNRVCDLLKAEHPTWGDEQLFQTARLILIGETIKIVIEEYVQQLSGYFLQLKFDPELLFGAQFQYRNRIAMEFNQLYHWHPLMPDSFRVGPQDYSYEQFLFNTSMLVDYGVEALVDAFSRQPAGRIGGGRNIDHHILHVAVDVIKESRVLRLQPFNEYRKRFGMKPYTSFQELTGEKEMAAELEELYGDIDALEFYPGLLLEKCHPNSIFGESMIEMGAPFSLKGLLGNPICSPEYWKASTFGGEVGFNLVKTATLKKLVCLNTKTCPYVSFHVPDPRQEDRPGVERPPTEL

[30] = Inhibition of soybean 15-LOX; parameters: species or system Glycine max
[31] = system: Rattus norvegicus; test: Antiinflammatory activity in rat assessed as inhibition of carrageenan induced paw edema; format: functional
[32] = system: Rattus norvegicus; test: Antiinflammatory activity in rat assessed as inhibition of carrageenan induced paw edema at 50 mg/kg; format: functional; parameters: scale not given: the % may be the effect or the level left
[33] = system: RAW264.7; test: Antiinflammatory activity in mouse RAW264.7 cells assessed as decrease in IL-6 secretion; format: functional; parameters: scale not given: the % may be the effect or the level left
[34] = system: RAW264.7; test: Antiinflammatory activity in mouse RAW264.7 cells assessed as decrease in TNFalpha secretion; format: functional; parameters: scale not given: the % may be the effect or the level left
[35] = system: Geotrichum candidum; test: Antifungal activity against Geotrichum candidum assessed as zone of inhibition; format: functional
[36] = system: Staphylococcus epidermidis; test: Antibacterial activity against Staphylococcus epidermidis assessed as zone of inhibition; format: functional
[37] = system: Klebsiella pneumoniae; test: Antibacterial activity against Klebsiella pneumoniae assessed as zone of inhibition; format: functional
[38] = system: Salmonella typhimurium; test: Antibacterial activity against Salmonella typhimurium assessed as zone of inhibition; format: functional, Salmonella enterica subsp. enterica serovar Typhimurium
[39] = system: Enterococcus faecalis; test: Antibacterial activity against Enterococcus faecalis assessed as zone of inhibition at 5 mg/ml; format: functional; details: read-out: IZ
[40] = system: Proteus vulgaris; test: Antibacterial activity against Proteus vulgaris assessed as zone of inhibition at 5 mg/ml; format: functional; details: read-out: IZ
[41] = system: Streptococcus mutans; test: Antibacterial activity against Streptococcus mutans assessed as zone of inhibition at 5 mg/ml; format: functional; details: read-out: IZ
[42] = system: Staphylococcus aureus; test: Antibacterial activity against Staphylococcus aureus assessed as zone of inhibition at 5 mg/ml; format: functional; details: read-out: IZ
[43] = system: Bacillus subtilis; test: Antibacterial activity against Bacillus subtilis assessed as zone of inhibition at 5 mg/ml; format: functional; details: read-out: IZ
[44] = system: Escherichia coli; test: Antibacterial activity against Escherichia coli assessed as zone of inhibition at 5 mg/ml; format: functional; details: read-out: IZ
[45] = system: Aspergillus fumigatus; test: Antifungal activity against Aspergillus fumigatus assessed as zone of inhibition at 5 mg/ml; format: functional; details: read-out: IZ
[46] = system: Aspergillus flavus; test: Antifungal activity against Aspergillus flavus assessed as zone of inhibition at 5 mg/ml; format: functional; details: read-out: IZ
[47] = system: Candida albicans; test: Antifungal activity against Candida albicans assessed as zone of inhibition at 5 mg/ml; format: functional; details: read-out: IZ
[48] = system: HepG2; test: Cytotoxicity against human HepG2 cells by MTT assay; format: functional, cell-based
[49] = system: Aspergillus fumigatus; test: Antifungal activity against Aspergillus fumigatus; format: functional
[50] = system: Candida tropicalis; test: Antifungal activity against Candida tropicalis assessed as zone of inhibition; format: functional
[51] = target: Gamma-aminobutyric acid receptor subunit alpha-1 (Homo sapiens, UniProt P14867); test: Binding affinity to GABAA alpha1 (unknown origin)
[52] = system: Mus musculus; test: Anxiolytic activity in mouse assessed as time spent in light at 10 mg/kg, po; format: functional
[53] = system: Mus musculus; test: Anxiolytic activity in mouse assessed as time spent in light at 1 mg/kg, po; format: functional
[54] = system: Mus musculus; test: Anxiolytic activity in mouse assessed as time spent in light at 3 mg/kg, po; format: functional
[55] = system: Mus musculus; test: Anxiolytic activity in mouse assessed as time spent in light at 30 mg/kg, po; format: functional
[56] = system: Mus musculus; test: Anxiolytic activity in mouse assessed as transfer number at 10 mg/kg, po; format: functional
[57] = system: Mus musculus; test: Anxiolytic activity in mouse assessed as transfer number at 1 mg/kg, po; format: functional
[58] = system: Mus musculus; test: Anxiolytic activity in mouse assessed as transfer number at 3 mg/kg, po; format: functional
[59] = system: Mus musculus; test: Anxiolytic activity in mouse assessed as transfer number at 30 mg/kg, po; format: functional

Cyclin-dependent kinase 1, sequence (P06493 whole entry): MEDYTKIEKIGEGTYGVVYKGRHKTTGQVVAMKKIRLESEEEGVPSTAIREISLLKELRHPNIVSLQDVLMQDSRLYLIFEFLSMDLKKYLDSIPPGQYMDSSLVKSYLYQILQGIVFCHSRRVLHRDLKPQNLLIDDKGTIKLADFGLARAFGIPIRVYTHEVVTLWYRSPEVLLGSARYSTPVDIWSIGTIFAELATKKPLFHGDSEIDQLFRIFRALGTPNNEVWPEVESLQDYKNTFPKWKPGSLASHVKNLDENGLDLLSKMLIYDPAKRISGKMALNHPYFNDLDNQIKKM
Gamma-aminobutyric acid receptor subunit alpha-1, sequence (P14867 whole entry): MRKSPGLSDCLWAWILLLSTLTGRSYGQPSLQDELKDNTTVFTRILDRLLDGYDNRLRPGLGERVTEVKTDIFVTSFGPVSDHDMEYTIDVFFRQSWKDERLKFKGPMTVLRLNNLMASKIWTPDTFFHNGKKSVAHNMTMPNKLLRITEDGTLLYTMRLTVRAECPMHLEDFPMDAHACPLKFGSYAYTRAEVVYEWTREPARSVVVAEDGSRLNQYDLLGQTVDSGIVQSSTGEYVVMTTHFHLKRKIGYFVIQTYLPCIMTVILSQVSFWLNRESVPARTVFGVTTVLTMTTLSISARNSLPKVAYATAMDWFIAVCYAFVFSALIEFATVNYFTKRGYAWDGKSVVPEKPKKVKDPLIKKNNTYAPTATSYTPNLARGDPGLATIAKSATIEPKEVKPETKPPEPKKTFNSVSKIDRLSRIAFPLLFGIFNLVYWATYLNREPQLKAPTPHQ

SMILES: COc1ccc(-c2cc(-c3nn4cc(-c5ccncc5)cnc4c3S(=O)(=O)c3cc(OC)c(OC)c(OC)c3)on2)cc1
- pIC50 [1]: 6.74
- pIC50 [2]: 8.00
- pIC50 [3]: 8.00
- pIC50 [4]: 7.00

SMILES: CCOC(=O)c1ncn2c1CN(C)C(=O)c1cc(F)ccc1-2 [FLUMAZENIL]
- Activity [5]: 120.08%
- Activity [6]: 12.8

SMILES: Cc1nc2c(c(C)nc3c(C#N)cnn32)c2c1CCO2
- inhibition zone (IZ) [7]: 16.4 mm
- inhibition zone (IZ) [8]: 14.1 mm
- inhibition zone (IZ) [9]: 17.7 mm

SMILES: COc1ccc(Nc2nn3c(-c4ccccc4)cc(-c4ccccc4)nc3c2C(N)=O)cc1
- inhibition zone (IZ) [10]: 9 mm
- inhibition zone (IZ) [7]: 13 mm
- inhibition zone (IZ) [8]: 12 mm
- inhibition zone (IZ) [11]: 10 mm
- MIC [12]: 3.9 µg/mL (≈ 8.96 µM)
- MIC [13]: 7.81 µg/mL (≈ 17.9 µM)
- MIC [14]: 3.9 µg/mL (≈ 8.96 µM)
- MIC [15]: 15.6 µg/mL (≈ 35.9 µM)
- MIC [16]: 15.6 µg/mL (≈ 35.9 µM)
- MIC [17]: 7.81 µg/mL (≈ 17.9 µM)

SMILES: Cc1ccn2ncc(C#N)c2n1
- Activity [18]: 36.4%
- Activity [19]: 45.1%
- Activity [20]: 28.7%
- Activity [21]: 39.6%
- Activity [22]: 65.8%
- Activity [23]: 40.3%

SMILES: CCSc1nn2c3c(c(C)nc2c1C#N)Nc1ccccc1C(=O)N3C1CCCCC1
- Activity [24]: 100%

SMILES: COc1ccc(Nc2nn3c(-c4ccccc4)cc(-c4ccccc4)nc3c2C(N)=O)c(OC)c1
- pIC50 [25]: 5.20
- Activity [26]: 48.5%
- pIC50 [27]: 4.75
- pIC50 [28]: 6.79

SMILES: COc1ccnc(Nc2nn3c(SC)c(C#N)c(O)nc3c2C#N)c1
- pIC50 [29]: 4.90
- pIC50 [30]: 4.74
- ED50 [31]: 35 mg/kg
- Activity [32]: 46%
- Activity [33]: 80%
- Activity [34]: 89%

SMILES: Nc1nn2c(-c3ccc(S(=O)(=O)c4ccccc4)cc3)ccnc2c1/N=N/c1ccccc1Cl
- inhibition zone (IZ) [7]: 25.7 mm
- inhibition zone (IZ) [35]: 25.2 mm
- inhibition zone (IZ) [36]: 22.6 mm
- inhibition zone (IZ) [37]: 26.6 mm
- inhibition zone (IZ) [38]: 26.2 mm

SMILES: Cc1cc(C)nc(NS(=O)(=O)c2ccc(/N=N/c3c(N)nc4c(/N=N/c5ccc(C(F)(F)F)cc5)c(N)nn4c3N)cc2)n1
- zone of inhibition at 5000 µg/mL [39]: 25 mm
- zone of inhibition at 5000 µg/mL [40]: 40 mm
- zone of inhibition at 5000 µg/mL [41]: 13 mm
- zone of inhibition at 5000 µg/mL [42]: 13 mm
- zone of inhibition at 5000 µg/mL [43]: 13 mm
- zone of inhibition at 5000 µg/mL [44]: 13 mm
- zone of inhibition at 5000 µg/mL [45]: 13 mm
- zone of inhibition at 5000 µg/mL [46]: 13 mm
- zone of inhibition at 5000 µg/mL [47]: 13 mm
- IC50 [48]: 3.9 µg/mL (≈ 6.23 µM)
- IC50 [2]: 4.5 µg/mL
- IC50 [25]: 2.7 µg/mL

SMILES: COc1ccc(Nc2nn3c(N)c(C#N)c(-c4ccccc4)nc3c2C(N)=O)cc1
- MIC [49]: 15.6 µg/mL (≈ 39.1 µM)

SMILES: Cc1cc(NN2C(=O)c3ccccc3C2=O)n2ncc(C#N)c2n1
- inhibition zone (IZ) [50]: 17.4 mm

SMILES: O=c1c(Cc2ccccc2)c[nH]c2c(-c3ccccn3)cnn12
- pKi [51]: 6.74
- Activity [52]: 165.4%
- Activity [53]: 113.9%
- Activity [54]: 145.2%
- Activity [55]: 164.4%
- Activity [56]: 23.9
- Activity [57]: 15
- Activity [58]: 21.3
- Activity [59]: 28.9
